Reference: patent publication US20240148717A1, “COMBINATION THERAPY FOR TREATMENT OF CONDITIONS ASSOCIATED WITH AGING” (priority 2021, published 2024)

Tests used:
spirochetes = test: Case study Patient A: penicillin G, then with Lycopene and Allicin, for neuro-spirochetosis; format: in vivo, human; conditions: 24 million units per day intravenously every 4 hours, after a few days
Description: A patient (below, “Patient A”) was hospitalized on 10 Jun. 2019 and reported the following symptoms: • Fatigue; • Rash similar to a syphilis rash Patient A experienced 6 months previous; • Blurred vision; and • Headache and impaired thinking.
Based on the above results Patient A was treated with aqueous crystalline penicillin G 24 million units per day, administered intravenously every 4 hours.
On 23 Feb. […] However, other spirochetes were present which could create systemic infection. Among these bacteria, Patient A had Brachyspira, a slow-growing anaerobic spirochete that can colonize the large intestine of animals including humans. While Brachyspira is known for causing diarrhea, it was recently discovered that it could also attack other organs. It was found in the Alzheimer's brain (Miklossy, 2011 [16]) and has been recently been associated with other human chronic conditions (Hampson, 2017 [17]). One human experimental infection was recently performed, where a volunteer drank cultures of Brachyspira isolated from an Australian Aboriginal child with diarrhea, and reported headaches, among other symptoms. (Hampson, 2017 [18]).
After a number of medical consultations, Patient A agreed to follow a non-standard protocol, extending penicillin treatment s to a 6+week course for neuro-spirochetosis. […]

gray hair = test: Case study Patient A: hydroxychloroquine and curcumin added at end of therapy, gray hair; format: in vivo, human; conditions: hydroxychloroquine 200 mg per day for one month plus curcumin 3 g per day, added at end of therapy (FIG. 7)
From the text: Patient reported the following improvements—including the *very surprising* disappearance of minor symptoms they had not been aware of beforehand. A summary follows: • Eyes. Vision blur resolved almost completely. • Brain. Improved cognitive functions short-and-long-term memory (they reported faster typing). • Numbness. Some minor parts of their body that had been numb since the 2008 neuropathy, such as the tips of the toes, started to regain sensitivity. • Body. Even in a condition of little exercise while being hospitalized the patient lost about 5 kg in 2 weeks and seemed more toned and in generally better condition (FIG. 2). • Asthma. Patient A reported better breathing. […] Joints in hands started swelling, and then healing (see FIG. 5). Arthritis has been reported both with spirochetes and Chlamydia Pneumoniae infections (Steere, 1987 [19], Porritt, 2016 [20]). • Prostate. Patient A never had prostate problems. However, they reported a larger urine flow and more frequent nocturnal penile tumescence. • Skin. Lesions and sclerotic plaques on their hands, which dated back from 2008, started healing. They resembled a sub-clinical manifestation of Acrodermatitis Chronica Atrophicans, which appears in phase 3 of European borreliosis (see FIG. 3). Incidentally, the healing process highlighted a small-scale bull's eye patterns, with a white patch and a red dot at the center (FIG. 4). […]

| Structure (SMILES) | Effect of therapy (patient feeling better, vision improving) (spirochetes) | Reversal of gray hair (gray hair) |
| --- | --- | --- |
| CC1(C)S[C@@H]2[C@H](NC(=O)Cc3ccccc3)C(=O)N2[C@H]1C(=O)O [aqueous crystalline penicillin G, penicillin G] | seemed effective |  |
| COc1cc(/C=C/C(=O)CC(=O)/C=C/c2ccc(O)c(OC)c2)ccc1O [curcumin] |  | partial reversal of gray hair |
| CCN(CCO)CCCC(C)Nc1ccnc2cc(Cl)ccc12 (stereo not drawn) [hydroxychloroquine] |  | partial reversal of gray hair |
